Results from US11613522B2, “Herbicidally active 3-phenylisoxazoline-5-carboxamides of tetrahydro- and dihydrofurancarboxamides” (BAYER AKTIENGESELLSCHAFT, priority 2017, dated 2023).

How the values were obtained:
Type in all cases: in vivo
[1] = test system: Polygonum convolvulus; assay: Pre-emergence herbicidal activity against POLCO; details: Fallopia convolvulus, 504 h, dosage 80 g/ha, scored visually after about 3 weeks vs untreated controls
Text: (§1) 1. Pre-emergence herbicidal action against harmful plants and crop plant compatibility Seeds of monocotyledonous and dicotyledonous weed plants and crop plants are placed in plastic or wood fiber pots and covered with soil. The compounds of the invention, formulated in the form of wettable powders (WP) or as emulsion concentrates (EC), are then applied onto the surface of the covering soil as aqueous suspension or emulsion with addition of 0.5% additive at a water application rate of 600 l/ha (converted). After the treatment, the pots are placed in a greenhouse and kept under good growth conditions for the trial plants. After about 3 weeks, the effect of the preparations is scored visually in comparison with untreated controls as percentages. For example, 100% activity=the plants have died, 0% activity=like control plants. [table]

[2] = test system: Stellaria media; assay: Pre-emergence herbicidal activity against STEME; details: dosage 80 g/ha, scored visually after about 3 weeks vs untreated controls
Text: as §1

[3] = test system: Alopecurus myosuroides; assay: Post-emergence herbicidal activity against ALOMY; details: dosage 320 g/ha, rated visually after about 3 weeks; for pest or weed control at 320 g/ha: Alopecurus myosuroides, 504 h
Procedure: (§2) [table] Seeds of monocotyledonous and dicotyledonous weeds and crop plants are placed in sandy loam in plastic or wood-fiber pots, covered with soil and cultivated in a greenhouse under controlled growth conditions. 2 to 3 weeks after sowing, the test plants are treated at the one-leaf stage. The compounds of the invention, formulated in the form of wettable powders (WP) or as emulsion concentrates (EC), are then sprayed onto the green parts of the plants as aqueous suspension or emulsion with addition of 0.5% additive at a water application rate of 600 l/ha (converted). After the test plants had been kept in the greenhouse under optimum growth conditions for about 3 weeks, the activity of the preparations is rated visually in comparison to untreated controls. For example, 100% activity=the plants have died, 0% activity=like control plants.

[4] = test system: Avena fatua; assay: Post-emergence herbicidal activity against AVEFA; details: dosage 320 g/ha, rated visually after about 3 weeks; for pest or weed control at 320 g/ha: Avena fatua, 504 h
Procedure: as §2

[5] = test system: Echinochloa crus-galli; assay: Post-emergence herbicidal activity against ECHCG; details: dosage 320 g/ha, rated visually after about 3 weeks; for pest or weed control at 320 g/ha: Echinochloa crus-galli, 504 h
Procedure: as §2

[6] = test system: Setaria viridis; assay: Post-emergence herbicidal activity against SETVI; details: dosage 320 g/ha, rated visually after about 3 weeks; for pest or weed control at 320 g/ha: Setaria viridis, 504 h
Procedure: as §2

[7] = test system: Amaranthus retroflexus; assay: Post-emergence herbicidal activity against AMARE; details: dosage 320 g/ha, rated visually after about 3 weeks; for pest or weed control at 320 g/ha: Amaranthus retroflexus, 504 h
Procedure: as §2

[8] = test system: Pharbitis purpurea; assay: Post-emergence herbicidal activity against PHBPU; details: dosage 320 g/ha, rated visually after about 3 weeks; for pest or weed control at 320 g/ha: Ipomoea purpurea, 504 h
Procedure: as §2

[9] = test system: Polygonum convolvulus; assay: Post-emergence herbicidal activity against POLCO; details: dosage 320 g/ha, rated visually after about 3 weeks; for pest or weed control at 320 g/ha: Fallopia convolvulus, 504 h
Procedure: as §2

[10] = test system: Stellaria media; assay: Post-emergence herbicidal activity against STEME; details: dosage 320 g/ha, rated visually after about 3 weeks; for pest or weed control at 320 g/ha: Stellaria media, 504 h
Procedure: as §2

[11] = test system: Viola tricolor; assay: Post-emergence herbicidal activity against VIOTR; details: dosage 320 g/ha, rated visually after about 3 weeks; for pest or weed control at 320 g/ha: Viola tricolor, 504 h
Procedure: as §2

[12] = test system: Veronica persica; assay: Post-emergence herbicidal activity against VERPE; details: dosage 320 g/ha, rated visually after about 3 weeks; for pest or weed control at 320 g/ha: Veronica persica, 504 h
Procedure: as §2

[13] = test system: Alopecurus myosuroides; assay: Pre-emergence herbicidal activity against ALOMY; details: dosage 80 g/ha, scored visually after about 3 weeks vs untreated controls; for pest or weed control at 80 g/ha: Alopecurus myosuroides, 504 h
Text: as §1

[14] = test system: Veronica persica; assay: Pre-emergence herbicidal activity against VERPE; details: Veronica persica, 504 h, dosage 80 g/ha
Text: as §1

[15] = test system: Avena fatua; assay: Pre-emergence herbicidal activity against AVEFA; details: dosage 80 g/ha, scored visually after about 3 weeks vs untreated controls
Text: as §1

[16] = test system: Lolium rigidum; assay: Post-emergence herbicidal activity against LOLRI; details: dosage 320 g/ha, rated visually after about 3 weeks
Procedure: as §2

[17] = test system: Hordeum murinum; assay: Post-emergence herbicidal activity against HORMU; details: dosage 320 g/ha, rated visually after about 3 weeks
Procedure: as §2

[18] = test system: Abutilon theophrasti; assay: Post-emergence herbicidal activity against ABUTH; details: dosage 320 g/ha, rated visually after about 3 weeks
Procedure: as §2

Compound	pest or weed control at 320 g/ha [3] [%]	pest or weed control at 320 g/ha [4] [%]	pest or weed control at 320 g/ha [6] [%]	pest or weed control at 320 g/ha [8] [%]	pest or weed control at 320 g/ha [9] [%]	pest or weed control at 320 g/ha [10] [%]	pest or weed control at 320 g/ha [12] [%]	Post-emergence herbicidal activity in % against ALOMY [3] [%]	Post-emergence herbicidal activity in % against AVEFA [4] [%]	Post-emergence herbicidal activity in % against ECHCG [5] [%]	Post-emergence herbicidal activity in % against LOLRI [16] [%]	Post-emergence herbicidal activity in % against SETVI [6] [%]	Post-emergence herbicidal activity in % against PHBPU [8] [%]	Post-emergence herbicidal activity in % against POLCO [9] [%]	Post-emergence herbicidal activity in % against STEME [10] [%]	Post-emergence herbicidal activity in % against VIOTR [11] [%]	Post-emergence herbicidal activity in % against VERPE [12] [%]	Post-emergence herbicidal activity in % against HORMU [17] [%]	other results
CC1(C(=O)N[C@@H]2CO[C@H](C(=O)N3CCCC3)C2)CC(c2cc(F)cc(F)c2)=NO1 (relative stereo) [Example I-03, 3-(3,5-difluorophenyl)-5-methyl-N-[cis-5-(pyrrolidine-1-carbonyl)tetrahydrofuran-3-yl]-4H-isoxazole-5-carboxamide]	80	90	90	80	80	90	90	–	–	–	–	–	–	–	–	–	–	–	pest or weed control at 80 g/ha [1]: 80%; pest or weed control at 80 g/ha ([2]; Stellaria media, 504 h): 80%; pest or weed control at 320 g/ha [5]: 80%; pest or weed control at 320 g/ha [7]: 80%; pest or weed control at 320 g/ha [11]: 80%
CC1(C(=O)N[C@@H]2CO[C@H](C(=O)NC3CC3)C2)CC(c2cc(F)cc(F)c2)=NO1 (relative stereo) [Example I-04, N-[cis-5-(cyclopropylcarbamoyl)tetrahydrofuran-3-yl]-3-(3,5-difluorophenyl)-5-methyl-4H-isoxazole-5-carboxamide]	90	100	90	80	80	80	80	–	–	–	–	–	–	–	–	–	–	–	pest or weed control at 80 g/ha [13]: 80%; pest or weed control at 80 g/ha [1]: 90%; pest or weed control at 320 g/ha [5]: 80%; pest or weed control at 320 g/ha [11]: 80%
C=CC1(C(=O)N[C@@H]2CO[C@H](C(=O)N3CCCC3)C2)CC(c2cc(F)cc(F)c2)=NO1 (relative stereo) [Example I-06, 3-(3,5-difluorophenyl)-N-[cis-5-(pyrrolidin-1-carbonyl)tetrahydrofuran-3-yl]-5-vinyl-4H-isoxazole-5-carboxamide]	90	90	80	80	80	80	80	–	–	–	–	–	–	–	–	–	–	–	pest or weed control at 320 g/ha [7]: 80%
CC1(C(=O)NC2COCC2C(=O)NC2CC2)CC(c2cc(F)cc(F)c2)=NO1 (stereo not drawn) [Example I-08, N-[4-(cyclopropylcarbamoyl)tetrahydrofuran-3-yl]-3-(3,5-difluorophenyl)-5-methyl-4H-isoxazole-5-carboxamide]	90	80	–	80	80	–	80	–	–	–	–	–	–	–	–	–	–	–	pest or weed control at 80 g/ha [13]: 90%; pest or weed control at 80 g/ha [14]: 90%
C[C@]1(C(=O)N[C@@H]2CO[C@H](C(=O)NCc3ncc(C(F)(F)F)cc3Cl)C2)CC(c2cc(F)cc(F)c2)=NO1 [Example I-27]	–	–	–	–	–	–	–	90	100	100	90	80	90	80	90	80	80	100	Pre-emergence herbicidal activity in % against ALOMY [13]: 90%; Pre-emergence herbicidal activity in % against AVEVA (AVEFA) [15]: 80%; Pre-emergence herbicidal activity in % against STEME [2]: 90%
CCCS(=O)(=O)NC(=O)[C@@H]1C[C@H](NC(=O)[C@@]2(C)CC(c3cc(F)cc(F)c3)=NO2)CO1 [Example I-28]	–	–	–	–	–	–	–	90	100	90	100	90	90	80	90	90	90	90	Post-emergence herbicidal activity in % against ABUTH [18]: 80%; Post-emergence herbicidal activity in % against AMARE [7]: 80%
C=C[C@]1(C(=O)N[C@@H]2CO[C@H](C(=O)NS(=O)(=O)CCC)C2)CC(c2cc(F)cc(F)c2)=NO1 [Example I-29]	–	–	–	–	–	–	–	90	90	90	90	90	90	90	90	90	90	90	Post-emergence herbicidal activity in % against ABUTH [18]: 90%; Post-emergence herbicidal activity in % against AMARE [7]: 90%
